Source: ChEMBL document CHEMBL1121532, “Pyrido[2,1-b]quinazolinecarboxylic acids as orally active antiallergy agents” (1980)

Key:
Type in all cases: functional
Rattus norvegicus [1] = experiment: % inhibition of antiallergic activity in the rat passive cutaneous anaphylaxis (PCA) test after giving intraperitoneal dose of 16 mg/kg; settings: ip
Rattus norvegicus [2] = experiment: % inhibition of antiallergic activity in the rat passive cutaneous anaphylaxis (PCA) test after giving peroral dose of 32 mg/kg; settings: route oral
Rattus norvegicus [3] = organism: Rattus norvegicus; experiment: Dose that causes 50% inhibition in the expected wheal size when given perorally; settings: po, read-out: ID50 (the source's name)
Rattus norvegicus [4] = experiment: % inhibition of antiallergic activity in the rat passive cutaneous anaphylaxis (PCA) test after giving intraperitoneal dose of 8 mg/kg; settings: ip
Rattus norvegicus [5] = experiment: % inhibition of antiallergic activity in the rat passive cutaneous anaphylaxis (PCA) test after giving intraperitoneal dose of 16 mg/kg; Not significant; settings: ip

Cc1ccc2nc3ccc(C(=O)O)cc3c(=O)n2c1
inhibition in vivo at 16 mg/kg (Rattus norvegicus [1]): 69%
inhibition in vivo at 32 mg/kg (Rattus norvegicus [2]): 81%
ED50 (Rattus norvegicus [3]): 7.11 mg/kg

CC(=O)c1ccc2nc3ccc(C(=O)O)cc3c(=O)n2c1
inhibition in vivo at 16 mg/kg (Rattus norvegicus [1]): 44%

O=C(O)c1cc(=O)c2c(OCC(O)COc3cccc4oc(C(=O)O)cc(=O)c34)cccc2o1 [CROMOLYN SODIUM]
inhibition in vivo at 32 mg/kg (Rattus norvegicus [2]): 18%
inhibition in vivo at 8 mg/kg (Rattus norvegicus [4]): 46%

CO/N=C(\C)c1ccc2nc3ccc(C(=O)O)cc3c(=O)n2c1
inhibition in vivo at 16 mg/kg (Rattus norvegicus [1]): 36%

CC(C)c1ccc2nc3ccc(C(=O)O)cn3c(=O)c2c1
inhibition in vivo at 16 mg/kg (Rattus norvegicus [1]): 76%
inhibition in vivo at 32 mg/kg (Rattus norvegicus [2]): 87%
ED50 (Rattus norvegicus [3]): 0.45 mg/kg

O=C(O)c1ccc2nc3ccccn3c(=O)c2c1 [DOQUALAST]
inhibition in vivo at 16 mg/kg (Rattus norvegicus [5]): 16%

Cc1ccc2nc3ccc(C(=O)O)cn3c(=O)c2c1
inhibition in vivo at 16 mg/kg (Rattus norvegicus [1]): 58%
inhibition in vivo at 32 mg/kg (Rattus norvegicus [2]): 83%
ED50 (Rattus norvegicus [3]): 3.53 mg/kg

O=C(O)c1ccc2nc3ccccc3c(=O)n2c1
inhibition in vivo at 16 mg/kg (Rattus norvegicus [5]): 17%

CC(C)c1ccc2nc3ccc(C(=O)O)cc3c(=O)n2c1
inhibition in vivo at 16 mg/kg (Rattus norvegicus [1]): 81%
inhibition in vivo at 32 mg/kg (Rattus norvegicus [2]): 92%
ED50 (Rattus norvegicus [3]): 0.026 mg/kg
